Consider 62 compounds from patent publication US8653087B2, “Pyrido [5, 4-D] pyrimidines as cell proliferation inhibitors” (Boehringer Ingelheim International GmbH, priority 2008, dated 2014).

This assay deals with B-Raf (V600E)-kinase (Homo sapiens (Human), UniProt P15056, V600E). The assay can be described thus: Kinase test B-RAF (V600E). To be noted: B-RAF (V600E) kinase test, 250 μM ATP. The format is biochemical. In a few lines: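 B-Raf (V600E) (0.5 ng) preincubated with compound 24 h at RT (5% DMSO), then reacted 60 min at RT with 250 μM ATP and biotinylated MEK1 as substrate. Phospho-MEK (Ser217/221) captured on streptavidin and detected by europium time-resolved fluorescence; IC50 from dose-response curves.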
B-Raf (V600E)-kinase, sequence (P15056 whole entry V600E): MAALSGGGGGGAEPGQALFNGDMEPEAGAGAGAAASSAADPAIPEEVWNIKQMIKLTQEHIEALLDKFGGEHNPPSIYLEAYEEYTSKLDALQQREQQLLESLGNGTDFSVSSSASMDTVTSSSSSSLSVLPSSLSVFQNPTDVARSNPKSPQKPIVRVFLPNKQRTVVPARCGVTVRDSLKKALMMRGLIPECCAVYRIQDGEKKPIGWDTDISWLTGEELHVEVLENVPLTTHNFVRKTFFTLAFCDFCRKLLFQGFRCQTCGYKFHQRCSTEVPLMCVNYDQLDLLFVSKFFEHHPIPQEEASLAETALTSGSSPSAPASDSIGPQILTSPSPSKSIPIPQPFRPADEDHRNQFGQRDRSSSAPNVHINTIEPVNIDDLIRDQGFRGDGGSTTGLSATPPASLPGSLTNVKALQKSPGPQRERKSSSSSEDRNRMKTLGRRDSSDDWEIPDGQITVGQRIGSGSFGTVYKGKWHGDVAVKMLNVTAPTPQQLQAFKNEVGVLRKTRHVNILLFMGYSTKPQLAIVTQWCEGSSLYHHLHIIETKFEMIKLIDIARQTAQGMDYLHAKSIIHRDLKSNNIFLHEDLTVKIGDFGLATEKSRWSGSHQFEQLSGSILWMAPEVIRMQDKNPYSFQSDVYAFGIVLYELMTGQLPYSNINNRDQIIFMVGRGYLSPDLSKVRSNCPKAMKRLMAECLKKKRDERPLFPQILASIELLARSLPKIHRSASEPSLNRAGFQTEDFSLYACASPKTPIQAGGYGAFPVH
For the compound `Cc1ccc(C(=O)Nc2cccc(C(F)(F)F)c2)cc1Nc1ncnc2cnc(N3CCN(CC4CCN(C)CC4)CC3)nc12` [III-417], the IC50 is < 1 nM.
In turn, `Cc1ccc(C(=O)Nc2cc(C(C)(C)C)n[nH]2)cc1Nc1ncnc2cnc(N3CCN(CC4CCN(C)CC4)CC3)nc12` [III-418] gave an IC50 of 2 nM.
Turning to `COc1ccc(NC(=O)c2ccc(C)c(Nc3ncnc4cnc(N5CCN(CC6CCN(C)CC6)CC5)nc34)c2)cc1C(F)(F)F` [III-419], the IC50 is 1 nM.
`Cc1ccc(C(=O)Nc2cc(C(C)(C)C)on2)cc1Nc1ncnc2cnc(N3CCN(CC4CCN(C)CC4)CC3)nc12` [III-420] came in with an IC50 of 1 nM.
In the case of `COCCN1CCN(c2ncc3ncnc(Nc4cc(C(=O)Nc5cc(C(C)(C)C)nn5C)ccc4C)c3n2)CC1` [III-421], the midpoint of inhibition, the IC50, lay at 12 nM.
As to `COCCN1CCN(c2ncc3ncnc(Nc4cc(C(=O)Nc5cc(C(C)(C)C)ccc5OC)ccc4C)c3n2)CC1` [III-422], the IC50 is 5 nM. This IC50 lies about 2.4-fold lower than the previous one.
Under `COCCN1CCN(c2ncc3ncnc(Nc4cc(C(=O)Nc5cccc(C(F)(F)F)c5)ccc4C)c3n2)CC1` [III-423] stands < 1 nM; under `CCN1CCN(c2cc(NC(=O)c3ccc(C)c(Nc4ncnc5cnc(N6CCN(CCOC)CC6)nc45)c3)cc(C(F)(F)F)c2)CC1` [III-424], 6 nM.
Under `COCCN1CCN(c2ncc3ncnc(Nc4cc(C(=O)Nc5cc(C(C)(C)C)n[nH]5)ccc4C)c3n2)CC1` [III-425] stands 7 nM.
Take `COCCN1CCN(c2ncc3ncnc(Nc4cc(C(=O)Nc5cc(C(F)(F)F)ccn5)ccc4C)c3n2)CC1` [III-426]: the IC50 was < 1 nM.
Regarding `COCCN1CCN(c2ncc3ncnc(Nc4cc(C(=O)Nc5ccc(OC)c(C(F)(F)F)c5)ccc4C)c3n2)CC1` [III-427], the IC50 came to 2 nM.
As to `Cc1ccc(C(=O)Nc2cccc(C(C)(C)C)c2)cc1Nc1ncnc2cnc(NCc3ccccc3)nc12` [III-428], the IC50 was < 1 nM.
Then `Cc1ccc(C(=O)Nc2cc(C(C)(C)C)nn2C)cc1Nc1ncnc2cnc(NCc3ccccc3)nc12` [III-429], with 2 nM; and `Cc1ccc(C(=O)Nc2cccc(C(C)(C)C#N)c2)cc1Nc1ncnc2cnc(NCc3ccccc3)nc12` [III-430], with 7 nM.
In turn, `COc1ccc(NC(=O)c2ccc(C)c(Nc3ncnc4cnc(N5C[C@H]6C[C@@H]5CN6C)nc34)c2)cc1C(F)(F)F` [III-431] gave an IC50 of 3 nM.
Then `COc1ccc(NC(=O)c2ccc(C)c(Nc3ncnc4cnc(N5CCN(CC6CCOC6)CC5)nc34)c2)cc1C(F)(F)F` (centres unmarked) [III-432], with 6 nM; and `COc1ccc(NC(=O)c2ccc(C)c(Nc3ncnc4cnc(N5CCN(C6CC6)CC5)nc34)c2)cc1C(F)(F)F` [III-433], with 7 nM; and `COc1ccc(NC(=O)c2ccc(C)c(Nc3ncnc4cnc(N5CCC(N(C)C)CC5)nc34)c2)cc1C(F)(F)F` [III-435], with 1 nM.
Then `COc1ccc(NC(=O)c2ccc(C)c(Nc3ncnc4cnc(N5C[C@@H](C)N[C@@H](C)C5)nc34)c2)cc1C(F)(F)F` [III-436], with 2 nM; and `COc1ccc(NC(=O)c2ccc(C)c(Nc3ncnc4cnc(N5CCN(C(C)C)CC5)nc34)c2)cc1C(F)(F)F` [III-437], with 2 nM.
Compound `Cc1ccc(C(=O)Nc2cc(N(C)CCN(C)C)cc(C(F)(F)F)c2)cc1Nc1ncnc2cnc(N3CC[C@H](F)C3)nc12` [III-438] registered an IC50 of 6 nM. This IC50 is about 3-fold higher than that of the compound before.
Then `CCN1CCN(c2cc(NC(=O)c3ccc(C)c(Nc4ncnc5cnc(N6CC[C@H](F)C6)nc45)c3)cc(C(F)(F)F)c2)CC1` [III-439], with 4 nM; and `Cc1ccc(C(=O)Nc2cc(N(C)CCN(C)C)cc(C(F)(F)F)c2)cc1Nc1ncnc2cnc(N3CCCC3)nc12` [III-440], with 272 nM; and `CCN1CCN(c2cc(NC(=O)c3ccc(C)c(Nc4ncnc5cnc(N6CCOCC6)nc45)c3)cc(C(F)(F)F)c2)CC1` [III-441], with 2 nM.
The compound `Cc1ccc(C(=O)Nc2cc(N(C)CCN(C)C)cc(C(F)(F)F)c2)cc1Nc1ncnc2cnc(N3CCOCC3)nc12` [III-442] gave an IC50 of 1 nM.
Then `COc1ccc(NC(=O)c2ccc(C)c(Nc3ncnc4cnc(N5CCCN(C)CC5)nc34)c2)cc1C(F)(F)F` [III-443], with 1 nM; and `COc1ccc(NC(=O)c2ccc(C)c(Nc3ncnc4cnc(N5CCN(CC(C)C)CC5)nc34)c2)cc1C(F)(F)F` [III-444], with 4 nM.
Under `COc1ccc(NC(=O)c2ccc(C)c(Nc3ncnc4cnc(N5CCCC5)nc34)c2)cc1C(F)(F)F` [III-445] stands 2 nM; under `Cc1ccc(C(=O)Nc2cc(C(C)(C)C)n[nH]2)cc1Nc1ncnc2cnc(N3CCCN(C)CC3)nc12` [III-446], 6 nM; under `Cc1ccc(C(=O)Nc2cc(C(C)(C)C)n[nH]2)cc1Nc1ncnc2cnc(N3CCN(CC(C)C)CC3)nc12` [III-447], 13 nM.
As to `Cc1ccc(C(=O)Nc2cc(C(C)(C)C)n[nH]2)cc1Nc1ncnc2cnc(N3CCN(C)CC3)nc12` [III-448], it took 8 nM to reach half-maximal inhibition (IC50).
Then `Cc1ccc(C(=O)Nc2cc(C(F)(F)F)ccn2)cc1Nc1ncnc2cnc(N3CCN(CC(C)C)CC3)nc12` [III-449], with 3 nM; and `Cc1cn(-c2cc(NC(=O)c3ccc(C)c(Nc4ncnc5cnc(N6CCC(F)(F)C6)nc45)c3)cc(C(F)(F)F)c2)cn1` [III-450], with 3 nM.
With `Cc1cn(-c2cc(NC(=O)c3ccc(C)c(Nc4ncnc5cnc(N6CC[C@H](F)C6)nc45)c3)cc(C(F)(F)F)c2)cn1` [III-454], the IC50 turned out to be 4 nM. This IC50 and that of the compound before are within 1.5-fold of each other.
Then `Cc1ccc(C(=O)Nc2cc(N3CCN(CC(C)C)CC3)cc(C(F)(F)F)c2)cc1Nc1ncnc2cnc(N3CC[C@H](F)C3)nc12` [III-455], with 8 nM; and `Cc1ccc(C(=O)Nc2cc(N3CCN(C(C)C)CC3)cc(C(F)(F)F)c2)cc1Nc1ncnc2cnc(N3CC[C@H](F)C3)nc12` [III-456], with 3 nM; and `Cc1ccc(C(=O)Nc2cc(N3CCN(C)CC3)cc(C(F)(F)F)c2)cc1Nc1ncnc2cnc(N3CC[C@H](F)C3)nc12` [III-457], with 4 nM.
For `Cc1ccc(C(=O)Nc2cc(N3CCCN(C)CC3)cc(C(F)(F)F)c2)cc1Nc1ncnc2cnc(N3CC[C@H](F)C3)nc12` [III-458], the IC50 turned out to be 1 nM.
`Cc1ccc(C(=O)Nc2cc(CN3CCCC3)cc(C(F)(F)F)c2)cc1Nc1ncnc2cnc(N3CC[C@H](F)C3)nc12` [III-459] yielded an IC50 of 2 nM.
In turn, `Cc1ccc(C(=O)Nc2cc(N3CCN(CC(C)C)CC3)cc(C(F)(F)F)c2)cc1Nc1ncnc2cnc(N3CCOCC3)nc12` [III-460] had an IC50 of 4 nM.
With `Cc1ccc(C(=O)Nc2cc(N3CCN(C(C)C)CC3)cc(C(F)(F)F)c2)cc1Nc1ncnc2cnc(N3CCOCC3)nc12` [III-461], the half-maximal inhibitory concentration (IC50) is 2 nM.
In turn, `Cc1ccc(C(=O)Nc2cc(N3CCN(C)CC3)cc(C(F)(F)F)c2)cc1Nc1ncnc2cnc(N3CCOCC3)nc12` [III-462] returned an IC50 of 1 nM.
In turn, `Cc1ccc(C(=O)Nc2cc(N3CCCN(C)CC3)cc(C(F)(F)F)c2)cc1Nc1ncnc2cnc(N3CCOCC3)nc12` [III-463] gave an IC50 of 2 nM.
As for `COCCN(C)c1ncc2ncnc(Nc3cc(C(=O)Nc4cc(C(C)(C)C)nn4C)ccc3C)c2n1` [III-465], 2 nM corresponded to half-maximal inhibition (IC50). This lies in the single-digit nanomolar range.
Take `COCCN(C)c1ncc2ncnc(Nc3cc(C(=O)Nc4cccc(C(F)(F)F)c4)ccc3C)c2n1` [III-467]: it took 2 nM to reach half-maximal inhibition (IC50).
Take `COCCN(C)c1ncc2ncnc(Nc3cc(C(=O)Nc4cccc(C(C)(C)C)c4)ccc3C)c2n1` [III-468]: the IC50 is < 1 nM.
For `COCCN(C)c1ncc2ncnc(Nc3cc(C(=O)Nc4cc(N(C)CCN(C)C)cc(C(F)(F)F)c4)ccc3C)c2n1` [III-469], the IC50 is < 1 nM.
For `CCN1CCN(c2cc(NC(=O)c3ccc(C)c(Nc4ncnc5cnc(N(C)CCOC)nc45)c3)cc(C(F)(F)F)c2)CC1` [III-470], the IC50 is 2 nM.
The compound `COCCN(C)c1ncc2ncnc(Nc3cc(C(=O)Nc4cc(C(C)(C)C)n[nH]4)ccc3C)c2n1` [III-471] had an IC50 of 4 nM. Compared with the last compound, the IC50 is about 2-fold higher.
As to `COCCN(C)c1ncc2ncnc(Nc3cc(C(=O)Nc4cc(C(F)(F)F)ccn4)ccc3C)c2n1` [III-472], inhibition was half-maximal at 2 nM (IC50).
`COCCN(C)c1ncc2ncnc(Nc3cc(C(=O)Nc4ccc(OC)c(C(F)(F)F)c4)ccc3C)c2n1` [III-473] displayed an IC50 of 1 nM. Compared with the last compound, the IC50 is about 2-fold lower.
`COCCN(C)c1ncc2ncnc(Nc3cc(C(=O)Nc4cc(C(C)(C)C)on4)ccc3C)c2n1` [III-474] registered an IC50 of 1 nM.
For `Cc1ccc(C(=O)Nc2cc(C(C)(C)C)nn2C)cc1Nc1ncnc2cnc(N(C)CC3CCCCO3)nc12` (centres unmarked) [III-476], inhibition was half-maximal at 17 nM (IC50).
Then `Cc1ccc(C(=O)Nc2cc(C(C)(C)C)on2)cc1Nc1ncnc2cnc(N(C)CC3CCCCO3)nc12` (centres unmarked) [III-480], with 4 nM; and `Cc1ccc(C(=O)Nc2cc(C(C)(C)C)on2)cc1Nc1ncnc2cnc(N3CCN(CCCN4CCCC4)CC3)nc12` [III-481], with 1 nM.
Take `Cc1ccc(C(=O)Nc2cc(C(C)(C)C)on2)cc1Nc1ncnc2cnc(N3CCN(CC4CCOC4)CC3)nc12` (centres unmarked) [III-482]: the midpoint of inhibition, the IC50, lay at 4 nM.
`Cc1ccc(C(=O)Nc2cc(C(C)(C)C)on2)cc1Nc1ncnc2cnc(N3CCN(CC4CCCN(C)C4)CC3)nc12` (centres unmarked) [III-483] displayed an IC50 of 1 nM.
`Cc1ccc(C(=O)Nc2cc(C(C)(C)C)on2)cc1Nc1ncnc2cnc(N3CCN4CCCC4C3)nc12` (centres unmarked) [III-484] registered an IC50 of 3 nM.
As for `Cc1ccc(C(=O)Nc2cc(C(C)(C)C)on2)cc1Nc1ncnc2cnc(N3CCC(N4CCCCC4)CC3)nc12` [III-485], the IC50 turned out to be 3 nM.
The compound `Cc1ccc(C(=O)Nc2cc(C(C)(C)C)on2)cc1Nc1ncnc2cnc(N3CCN(C4CCN(C)CC4)CC3)nc12` [III-486] showed an IC50 of 4 nM.
The compound `Cc1ccc(C(=O)Nc2cc(C(C)(C)C)on2)cc1Nc1ncnc2cnc(NCC(C)C)nc12` [III-487] displayed an IC50 of 13 nM.
The compound `Cc1ccc(C(=O)Nc2cc(C(C)(C)C)on2)cc1Nc1ncnc2cnc(N3CCC(N4C[C@@H](C)O[C@@H](C)C4)CC3)nc12` [III-488] returned an IC50 of 6 nM.

What is called IC50 is the concentration at which inhibition is half-maximal.
